Laboratory results from patent US20240208928A1, “NOVEL COMPOUNDS” (Hoffmann-La Roche Inc., priority 2021, published 2024).
pIC50: −log10 of the molar value.

Columns and labels:
NLRP3 [1] = biological target: T1, NLRP3 (Homo sapiens, UniProt Q96P20); assay: THP-1 cells pyroptosis assay; format: cell-based; parameters: Seed THP-1 cells (25,000 cells/well) containing 1.0 μg/ml LPS; host or cells: THP-1 cells, LPS-primed, nigericin-stimulated; conditions: 1.0 μg/ml LPS, nigericin 5 μM, resazurin readout
T1 sequence (Q96P20 whole entry): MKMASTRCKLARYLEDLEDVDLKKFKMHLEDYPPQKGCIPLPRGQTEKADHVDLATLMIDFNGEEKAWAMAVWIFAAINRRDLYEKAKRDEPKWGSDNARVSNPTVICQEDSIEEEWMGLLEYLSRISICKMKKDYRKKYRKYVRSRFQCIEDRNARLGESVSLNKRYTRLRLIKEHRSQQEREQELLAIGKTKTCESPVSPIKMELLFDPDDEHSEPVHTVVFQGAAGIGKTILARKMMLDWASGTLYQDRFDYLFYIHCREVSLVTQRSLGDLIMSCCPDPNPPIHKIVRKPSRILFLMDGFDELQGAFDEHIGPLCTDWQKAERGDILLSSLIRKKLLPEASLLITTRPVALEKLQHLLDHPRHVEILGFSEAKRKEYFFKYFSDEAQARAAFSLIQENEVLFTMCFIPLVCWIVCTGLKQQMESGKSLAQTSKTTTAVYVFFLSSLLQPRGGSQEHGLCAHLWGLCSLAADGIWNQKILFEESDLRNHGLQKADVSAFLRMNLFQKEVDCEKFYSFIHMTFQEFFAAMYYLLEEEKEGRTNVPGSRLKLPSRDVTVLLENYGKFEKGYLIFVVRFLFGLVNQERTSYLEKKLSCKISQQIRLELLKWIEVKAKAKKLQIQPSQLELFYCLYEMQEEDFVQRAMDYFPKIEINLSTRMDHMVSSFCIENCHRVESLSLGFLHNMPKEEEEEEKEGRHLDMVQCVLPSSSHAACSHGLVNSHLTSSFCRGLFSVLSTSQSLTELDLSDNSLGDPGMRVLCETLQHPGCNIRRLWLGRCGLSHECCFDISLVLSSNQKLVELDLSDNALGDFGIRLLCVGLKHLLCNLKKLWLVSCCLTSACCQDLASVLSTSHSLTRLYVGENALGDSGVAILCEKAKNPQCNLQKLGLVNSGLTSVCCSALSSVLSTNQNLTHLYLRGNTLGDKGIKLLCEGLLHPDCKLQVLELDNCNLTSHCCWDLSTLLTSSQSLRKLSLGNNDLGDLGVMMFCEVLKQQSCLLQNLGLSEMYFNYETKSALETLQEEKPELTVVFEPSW
Protocol: The cells were routinely passaged and grown to confluency (˜10^6 cells/ml). On the day of the experiment, THP-1 cells were harvested and resuspended into RPMI medium (without FBS). […] To this diluted cell solution was added LPS (Sigma #L4524) to give a 1 μg/ml Final Assay Concentration (FAC). 40 μl of the final preparation was aliquoted into each well of a 96-well plate. The plate thus prepared was used for compound screening.
The following method step-by-step assay was followed for compound screening. • 1. […] Incubate for 3 hrs at 37° C., 5% CO2 • 4. Add 5 μl nigericin (Sigma #N7143) (FAC 5 μM) to all wells • 5. Incubate for 1 hr at 37° C., 5% CO2 • 6. At the end of the incubation period, spin plates at 300×g for 3 mins and remove supernatant • 7. Then add 50 μl of resazurin (Sigma #R7017) (FAC 100 μM resazurin in RPMI medium without FBS) and incubate plates for a further 1-2 hrs at 37° C. and 5% CO2 • 8. […] IC50 data is fitted to a non-linear regression equation (log inhibitor vs response-variable slope 4-parameters)

NLRP3 [2] = biological target: T1, NLRP3; assay: Human whole blood IL-1β release assay; format: cell-based; parameters: Human whole blood in Li-heparin tubes was obtained from healthy donors; from tissue; host or cells: human whole blood from healthy donors, LPS-primed, nigericin-stimulated; conditions: 1 μg/ml LPS, nigericin 10 μM, IL-1β by AlphaLisa
Protocol: For systemic delivery, the ability to inhibit NLRP3 when the compounds are present within the bloodstream is of great importance. For this reason, the NLRP3 inhibitory activity of a number of compounds in human whole blood was investigated in accordance with the following protocol.
Human whole blood in Li-heparin tubes was obtained from healthy donors from a volunteer donor panel. • 1. […] Incubate for 3 hrs at 37° C., 5% CO2 • 4. Add 10 μl nigericin (Sigma #N7143) (10 μM FAC) to all wells • 5. Incubate for 1 hr at 37° C., 5% CO2 • 6. At the end of the incubation period, spin plates at 300×g for 5 mins to pellet cells and remove 20 μl of supernatant and add to 96-well v-bottom plates for IL-1β analysis (note: these plates containing the supernatants can be stored at −80° C. to be analysed at a later date) • 7. IL-1β was measured according to the manufacturer protocol (Perkin Elmer-AlphaLisa IL-1 Kit AL220F-5000) • 8. IC50 data is fitted to a non-linear regression equation (log inhibitor vs response-variable slope 4-parameters)

In the case of CN1C[C@@H](F)C[C@@H](Nc2nnc(-c3ccc(C(F)(F)F)cc3O)[nH]c2=O)C1 [Example 36, 6-[[(3R,5S)-1-Methyl-5-fluoro-3-piperidyl]amino]-3-[2-hydroxy-4-(trifluoromethyl)phenyl]-4H-1,2,4-triazin-5-one;2,2,2-trifluoroacetic Acid], the pIC50 (NLRP3 [1]) was under 6.00.

CN1CCC[C@@H](Nc2nnc(-c3ccc(OC(F)(F)F)cc3O)n(C)c2=O)C1 [Example 34, 3-[2-Hydroxy-4-(trifluoromethoxy)phenyl]-4-methyl-6-[[(3R)-1-methyl-3-piperidyl]amino]-1,2,4-triazin-5-one] gave a pIC50 (NLRP3 [2]) of 7.45 and a pIC50 (NLRP3 [1]) of 7.88.

CN1CCC[C@@H](Nc2nnc(-c3ccc(C(F)(F)F)cc3O)n(C)c2=O)C1 [Example 6, (R)-3-(2-Hydroxy-4-(trifluoromethyl)phenyl)-4-methyl-6-((1-methylpiperidin-3-yl)amino)-1,2,4-triazin-5(4H)-one;2,2,2-trifluoroacetic Acid] was tested, and the pIC50 (NLRP3 [2]) was 7.82 and the pIC50 (NLRP3 [1]) was 7.62.

With CCN1C[C@@H](C)C[C@@H](Nc2nnc(-c3ccc(C(F)(F)F)cc3O)n(C)c2=O)C1 [Example 14, 6-[[(3R,5S)-1-Ethyl-5-methyl-3-piperidyl]amino]-3-[2-hydroxy-4-(trifluoromethyl)phenyl]-4-methyl-1,2,4-triazin-5-one;2,2,2-trifluoroacetic Acid] the pIC50 (NLRP3 [1]) was 6.12.

In the case of Cn1c(-c2ccc(C(F)(F)F)cc2O)nnc(NC2CCCN3CCCC23)c1=O (stereo not drawn) [Example 7, 6-(1,2,3,5,6,7,8,8a-Octahydroindolizin-8-ylamino)-3-[2-hydroxy-4-(trifluoromethyl)phenyl]-4-methyl-1,2,4-triazin-5-one;2,2,2-trifluoroacetic Acid], the pIC50 (NLRP3 [2]) was 7.07 and the pIC50 (NLRP3 [1]) was 7.29.

CCN1CCC[C@@H](Nc2nnc(-c3ccc(C(F)(F)F)cc3O)n(CC)c2=O)C1 [Example 22, 4-Ethyl-6-[[(3R)-1-ethyl-3-piperidyl]amino]-3-[2-hydroxy-4-(trifluoromethyl)phenyl]-1,2,4-triazin-5-one] was tested, and the pIC50 (NLRP3 [2]) was 7.32 and the pIC50 (NLRP3 [1]) was 7.03.

For Cn1c(-c2ccc(C(F)(F)F)cc2O)nnc(N[C@@H]2CCCNC2)c1=O [Example 3, 3-[2-Hydroxy-4-(trifluoromethyl)phenyl]-4-methyl-6-[[(3R)-3-piperidyl]amino]-1,2,4-triazin-5-one;2,2,2-trifluoroacetic Acid], the pIC50 (NLRP3 [1]) was 6.77.

Work on CCN1CCC[C@@H](Nc2nnc(-c3c(C)cc(C(F)(F)F)cc3O)n(C)c2=O)C1 (single isomer, unassigned) [Example 30, (P or M)-6-[[(3R)-1-ethyl-3-piperidyl]amino]-3-[2-hydroxy-6-methyl-4-(trifluoromethyl)phenyl]-4-methyl-1,2,4-triazin-5-one] yielded a pIC50 (NLRP3 [1]) of 6.12.

In the case of CCN1CCC[C@@H](Nc2nnc(-c3ccc(OC(F)F)cc3O)n(C)c2=O)C1 [Example 23, 3-[4-(Difluoromethoxy)-2-hydroxy-phenyl]-6-[[(3R)-1-ethyl-3-piperidyl]amino]-4-methyl-1,2,4-triazin-5-one; Formic Acid], the pIC50 (NLRP3 [2]) was 8.19 and the pIC50 (NLRP3 [1]) was 8.09.

For CCN1CCC[C@@H](Nc2nnc(-c3ccc(C(C)(F)F)cc3O)n(C)c2=O)C1 [Example 24, 3-[4-(1,1-Difluoroethyl)-2-hydroxy-phenyl]-6-[[(3R)-1-ethyl-3-piperidyl]amino]-4-methyl-1,2,4-triazin-5-one], the pIC50 (NLRP3 [2]) was 6.97 and the pIC50 (NLRP3 [1]) was 6.97.

CN1CC(Nc2nnc(-c3ccc(C(F)(F)F)cc3O)n(C)c2=O)CC(C)(C)C1 (stereo not drawn) [Example 9, 3-[2-Hydroxy-4-(trifluoromethyl)phenyl]-4-methyl-6-[(1,5,5-trimethyl-3-piperidyl)amino]-1,2,4-triazin-5-one;2,2,2-trifluoroacetic Acid] was tested, and the pIC50 (NLRP3 [1]) was 6.06.

For CCN1CCC[C@@H](Nc2nnc(-c3ccc(S(F)(F)(F)(F)F)cc3O)n(C)c2=O)C1 [Example 31, 6-[[(3R)-1-Ethyl-3-piperidyl]amino]-3-[2-hydroxy-4-(pentafluoro-λ6-sulfanyl)phenyl]-4-methyl-1,2,4-triazin-5-one], the pIC50 (NLRP3 [1]) was 6.94.

Cn1c(-c2ccc(C(F)(F)F)cc2O)nnc(N[C@@H]2CCCN(CC3CC3)C2)c1=O [Example 5, (R)-6-((1-(Cyclopropylmethyl)piperidin-3-yl)amino)-3-(2-hydroxy-4-(trifluoromethyl)phenyl)-4-methyl-1,2,4-triazin-5(4H)-one;2,2,2-trifluoroacetic Acid] gave a pIC50 (NLRP3 [2]) of 7.04 and a pIC50 (NLRP3 [1]) of 7.06.

With CCCN1CCC[C@@H](Nc2nnc(-c3ccc(C(F)(F)F)cc3O)n(C)c2=O)C1 [Example 8, 3-[2-Hydroxy-4-(trifluoromethyl)phenyl]-4-methyl-6-[[(3R)-1-propyl-3-piperidyl]amino]-1,2,4-triazin-5-one;2,2,2-trifluoroacetic Acid] the pIC50 (NLRP3 [2]) was 7.49 and the pIC50 (NLRP3 [1]) was 7.28.

CN1CC(Nc2nnc(-c3ccc(C(F)(F)F)cc3O)n(C)c2=O)C[C@H](F)C1 (stereo partly drawn) [Example 16, 6-[[(5S)-5-fluoro-1-methyl-3-piperidyl]amino]-3-[2-hydroxy-4-(trifluoromethyl)phenyl]-4-methyl-1,2,4-triazin-5-one;2,2,2-trifluoroacetic Acid] was tested, and the pIC50 (NLRP3 [1]) was 6.07.

Cn1c(-c2ccc(C(F)(F)F)cc2O)nnc(N[C@H]2C[C@@](C)(O)C2)c1=O [Example 11, 6-(((1S,3S)-3-Hydroxy-3-methylcyclobutyl)amino)-3-(2-hydroxy-4-(trifluoromethyl)phenyl)-4-methyl-1,2,4-triazin-5(4H)-one] showed a pIC50 (NLRP3 [2]) of 6.72 and a pIC50 (NLRP3 [1]) of 6.41.

In the case of CCN1CCC[C@@H](Nc2nnc(-c3ccc(C#N)cc3O)n(C)c2=O)C1 [Example 32, 4-[6-[[(3R)-1-Ethyl-3-piperidyl]amino]-4-methyl-5-oxo-1,2,4-triazin-3-yl]-3-hydroxy-benzonitrile; formic acid], the pIC50 (NLRP3 [1]) was 6.09.

Work on Cn1c(-c2ccc(C(F)(F)F)cc2O)nnc(N[C@@H]2CCC(C)(C)NC2)c1=O [Example 17, 6-[[(3R)-6,6-Dimethyl-3-piperidyl]amino]-3-[2-hydroxy-4-(trifluoromethyl)phenyl]-4-methyl-1,2,4-triazin-5-one;2,2,2-trifluoroacetic Acid] yielded a pIC50 (NLRP3 [1]) of 6.17.

Work on CCN1CCC[C@@H](Nc2nnc(-c3ccc(C(F)(F)F)cc3O)[nH]c2=O)C1 [Example 35, 6-[[(3R)-1-Ethyl-3-piperidyl]amino]-3-[2-hydroxy-4-(trifluoromethyl)phenyl]-4H-1,2,4-triazin-5-one;2,2,2-trifluoroacetic Acid] yielded a pIC50 (NLRP3 [1]) of 6.34.

With CN1CCC[C@@H](Nc2nnc(-c3ccc(C(F)(F)F)cc3O)n(C)c2=O)C1 [Example 26, 3-[2-hydroxy-4-(trifluoromethyl)phenyl]-4-methyl-6-[[(3R)-1-methyl-3-piperidyl]amino]-1,2,4-triazin-5-one] the pIC50 (NLRP3 [1]) was 7.99.

CCN1CCC[C@@H](Nc2nnc(-c3c(C)cc(C(F)(F)F)cc3O)n(C)c2=O)C1 (single isomer, unassigned) [Example 29, (M or P)-6-[[(3R)-1-ethyl-3-piperidyl]amino]-3-[2-hydroxy-6-methyl-4-(trifluoromethyl)phenyl]-4-methyl-1,2,4-triazin-5-one] gave a pIC50 (NLRP3 [1]) of 8.11.

In the case of CCN1C[C@H](C)C[C@@H](Nc2nnc(-c3ccc(C(F)(F)F)cc3O)n(C)c2=O)C1 [Example 15, 6-[[(3R,5R)-1-Ethyl-5-methyl-3-piperidyl]amino]-3-[2-hydroxy-4-(trifluoromethyl)phenyl]-4-methyl-1,2,4-triazin-5-one;2,2,2-trifluoroacetic Acid], the pIC50 (NLRP3 [1]) was under 6.00.

With CCN1CCC[C@@H](Nc2nnc(-c3ccc(C(F)(F)F)cc3O)n(C3CC3)c2=O)C1 [Example 20, 4-Cyclopropyl-6-[[(3R)-1-ethyl-3-piperidyl]amino]-3-[2-hydroxy-4-(trifluoromethyl)phenyl]-1,2,4-triazin-5-one;2,2,2-trifluoroacetic Acid] the pIC50 (NLRP3 [1]) was 6.14.

In the case of Cn1c(-c2ccc(C(F)(F)F)cc2O)nnc(NC2CC3CNC2C3)c1=O (stereo not drawn) [Example 13, 6-(2-Azabicyclo[2.2.1]heptan-6-ylamino)-3-[2-hydroxy-4-(trifluoromethyl)phenyl]-4-methyl-1,2,4-triazin-5-one;2,2,2-trifluoroacetic Acid], the pIC50 (NLRP3 [1]) was under 6.00.
